Data as given in patent publication US20020111336A1, “Topical composition” (priority 2000, published 2002).

Assay: Storage stability of the gel formulation containing calcipotriol and betamethasone dipropionate
Assay type: physicochemical
Settings: gel formulation of Example 1; for BDP Kvant.: content of BDP; for Calcipotri. Kvant.: content of calcipotriol, in µg/g
Protocol: To produce 1 kg of gel formulation, 30 g of hydrogenated castor oil was melted together with 749 g of heptamethylnonane at 85-90° C. and cooled with homogenisation to about 60° C. The mixture was then cooled to 25-30° C. with stirring. 643 mg of betamethasone dipropionate was suspended in 50 g of heptamethylnonane and added to the homogenised gel base. 52.2 mg of calcipotriol hydrate or 50 mg of calcipotriol was dissolved in 170 g polyoxypropylene-15-stearyl ether and added to the mixture of the other ingredients, and the formulation was homogenised to ensure a homogenous distribution of the active components. The resulting gel formulation was stable when stored at 40° C. for 3 months, indicating a shelf life of at least 2 years at room temperature.

Row | SMILES | % FOS (40° C. 1 month) [%] | BDP Kvant. (40° C. 1 month) [mg/g] | % FOS (40° C. 3 months) [%] | BDP Kvant. (40° C. 3 months) [mg/g] | % FOS (Start 5°C./1 month) [%] | % Epi (40° C. 1 month) [%] | Calcipotri. Kvant. (40° C. 1 month) | % Epi (40° C. 3 months) [%] | Calcipotri. Kvant. (40° C. 3 months) | % Epi (Start 5°C./1 month) [%]
1 | CCC(=O)OCC(=O)[C@@]1(OC(=O)CC)[C@@H](C)C[C@H]2[C@@H]3CCC4=CC(=O)C=C[C@]4(C)[C@@]3(F)[C@@H](O)C[C@@]21C [BDP, betamethasone dipropionate] | 0.91 | 0.634 | 1.02 | 0.642 | 0.23 | – | – | – | – | –
2 | C=C1/C(=C\C=C2/CCC[C@]3(C)[C@@H]([C@H](C)/C=C/[C@@H](O)C4CC4)CC[C@@H]23)C[C@@H](O)C[C@@H]1O [Calcipotri., calcipotriol] | 1.52 | – | 1.33 | – | 1.59 | 0.66 | 50.16 | 0.8 | 50.0 | 0.62
